Source: BindingDB's records for doi:10.1016/s0960-894x(99)00005-0 (Smithkline Beecham Pharmaceuticals, 1999)

Test: Inhibitory activity against varicella zoster virus (VZV) protease

Row | IC50 | Compound
1 | 0.84 µM | Cc1csc2nc([C@H](C)NC(=O)/C=C/C(=O)c3ccccc3[N+](=O)[O-])oc(=O)c12 [(E)-4-(2-Nitro-phenyl)-4-oxo-but-2-enoic acid [(S)-1-(5-methyl-4-oxo-4H-thieno[2,3-d][1,3]oxazin-2-yl)-ethyl]-amide]
2 | 0.41 µM | Cc1csc2nc([C@H](C)NC(=O)/C=C/C(=O)c3cccc(C#N)c3)oc(=O)c12 [(E)-4-(3-Cyano-phenyl)-4-oxo-but-2-enoic acid [(S)-1-(5-methyl-4-oxo-4H-thieno[2,3-d][1,3]oxazin-2-yl)-ethyl]-amide]
3 | 0.34 µM | COc1cccc(C(=O)/C=C/C(=O)N[C@@H](C)c2nc3scc(C)c3c(=O)o2)c1 [(E)-4-(3-Methoxy-phenyl)-4-oxo-but-2-enoic acid [(S)-1-(5-methyl-4-oxo-4H-thieno[2,3-d][1,3]oxazin-2-yl)-ethyl]-amide]
4 | 1.6 µM | CCOc1ccc(C(=O)/C=C/C(=O)N[C@@H](C)c2nc3scc(C)c3c(=O)o2)cc1 [(E)-4-(4-Ethoxy-phenyl)-4-oxo-but-2-enoic acid [(S)-1-(5-methyl-4-oxo-4H-thieno[2,3-d][1,3]oxazin-2-yl)-ethyl]-amide]
5 | 0.65 µM | Cc1csc2nc([C@H](C)NC(=O)/C=C/C(=O)c3cccs3)oc(=O)c12 [(E)-4-Oxo-4-thiophen-2-yl-but-2-enoic acid [(S)-1-(5-methyl-4-oxo-4H-thieno[2,3-d][1,3]oxazin-2-yl)-ethyl]-amide]
6 | 1.36 µM | CC(=O)C=CC(=O)N[C@@H](C)c1nc2scc(C)c2c(=O)o1 [(E)-4-Oxo-pent-2-enoic acid [(S)-1-(5-methyl-4-oxo-4H-thieno[2,3-d][1,3]oxazin-2-yl)-ethyl]-amide]
7 | 0.82 µM | Cc1csc2nc([C@H](C)NC(=O)CCC(=O)c3cccs3)oc(=O)c12 [N-[(S)-1-(5-Methyl-4-oxo-4H-thieno[2,3-d][1,3]oxazin-2-yl)-ethyl]-4-oxo-4-thiophen-2-yl-butyramide]
